HELM strings list units from the 5' end as sugar, base in round brackets, then linkage (d deoxyribose, r ribose, m 2'-O-methyl, p phosphodiester). Strings are as the collection lists them; they lack the last nucleoside at the 3' end of the tested compound. [moe] = 2'-O-(2-methoxyethyl) (MOE); [sp] = phosphorothioate linkage; [m5C] = 5-methylcytosine

This data set concerns the target APP. The data set is described as follows: mouse, dose not given. The following applies: ASO.
With “RNA1{[moe](T)[sp].[moe](A)p.[moe]([m5C])p.[moe](A)p.[moe](T)[sp].d([m5C])[sp].d(A)[sp].d(T)[sp].d(T)[sp].d(T)[sp].d(T)[sp].d([m5C])[sp].d(T)[sp].d(T)[sp].d(G)[sp].[moe]([m5C])p.[moe](A)p.[moe](G)[sp].[moe](T)}$$$$ (last 3' nucleoside missing)”, the 3 h FOB score worked out at 2.75 score 0-7.

For “RNA1{[moe](T)[sp].[moe](T)p.[moe](G)p.[moe](T)p.[moe](A)[sp].d(G)[sp].d(G)[sp].d(A)[sp].d(A)[sp].d([m5C])[sp].d(T)[sp].d([m5C])[sp].d(G)[sp].d(A)[sp].d(A)[sp].[moe]([m5C])p.[moe]([m5C])p.[moe](A)[sp].[moe]([m5C])}$$$$ (last 3' nucleoside missing)”, the 3 h FOB score worked out at 2 score 0-7.

Consider “RNA1{[moe](A)[sp].[moe](A)p.[moe](G)p.[moe](G)p.[moe]([m5C])[sp].d(A)[sp].d(T)[sp].d(G)[sp].d([m5C])[sp].d(A)[sp].d(T)[sp].d(T)[sp].d(T)[sp].d(T)[sp].d(T)[sp].[moe](A)p.[moe](G)p.[moe](G)[sp].[moe](G)}$$$$ (last 3' nucleoside missing)”, for which the 3 h FOB score was 1.67 score 0-7.

Regarding “RNA1{[moe](T)[sp].[moe](T)p.[moe](G)p.[moe](A)p.[moe](T)p.[moe](A)p.d(T)[sp].d(T)[sp].d(T)[sp].d(G)[sp].d(T)[sp].d([m5C])[sp].d(A)[sp].d(A)[sp].d([m5C])[sp].d([m5C])[sp].[moe]([m5C])p.[moe](A)[sp].[moe](G)}$$$$ (last 3' nucleoside missing)”, the 3 h FOB score came out at 4.75 score 0-7.

In turn, “RNA1{[moe](G)[sp].[moe](T)p.[moe](G)p.[moe](A)p.[moe](T)[sp].d(T)[sp].d(T)[sp].d([m5C])[sp].d(A)[sp].d([m5C])[sp].d(T)[sp].d(A)[sp].d(A)[sp].d([m5C])[sp].d([m5C])[sp].[moe](G)p.[moe](G)p.[moe]([m5C])[sp].[moe](A)}$$$$ (last 3' nucleoside missing)” came in with a 3 h FOB score of 2 score 0-7.

The substance “RNA1{[moe](A)[sp].[moe](G)p.[moe]([m5C])p.[moe](T)p.[moe](T)[sp].d(A)[sp].d([m5C])[sp].d(A)[sp].d(T)[sp].d([m5C])[sp].d(A)[sp].d(T)[sp].d(T)[sp].d(T)[sp].d(T)[sp].[moe]([m5C])p.[moe](T)p.[moe](T)[sp].[moe](G)}$$$$ (last 3' nucleoside missing)” had a 3 h FOB score of 1 score 0-7.

For “RNA1{[moe](A)[sp].[moe]([m5C])p.[moe](T)p.[moe](T)p.[moe](A)[sp].d([m5C])[sp].d(A)[sp].d(A)[sp].d(A)[sp].d([m5C])[sp].d(T)[sp].d([m5C])[sp].d(A)[sp].d([m5C])[sp].d([m5C])[sp].[moe](A)p.[moe](A)p.[moe]([m5C])[sp].[moe](T)}$$$$ (last 3' nucleoside missing)”, the 3 h FOB score worked out at 1 score 0-7.

“RNA1{[moe]([m5C])[sp].[moe]([m5C])p.[moe](A)p.[moe](T)p.[moe]([m5C])[sp].d(T)[sp].d(T)[sp].d(T)[sp].d(A)[sp].d(T)[sp].d(T)[sp].d([m5C])[sp].d(T)[sp].d(A)[sp].d(T)[sp].[moe](G)p.[moe](A)p.[moe](G)[sp].[moe]([m5C])}$$$$ (last 3' nucleoside missing)” displayed a 3 h FOB score of 0.75 score 0-7.

“RNA1{[moe](G)[sp].[moe](T)p.[moe](T)p.[moe]([m5C])p.[moe](A)p.[moe]([m5C])[sp].d(A)[sp].d(G)[sp].d(T)[sp].d(T)[sp].d(T)[sp].d(A)[sp].d([m5C])[sp].d([m5C])[sp].d([m5C])[sp].d([m5C])[sp].[moe](A)p.[moe](A)[sp].[moe](G)}$$$$ (last 3' nucleoside missing)” had a 3 h FOB score of 0 score 0-7.

For “RNA1{[moe](G)[sp].[moe](T)p.[moe](T)p.[moe]([m5C])p.[moe](A)[sp].d([m5C])[sp].d(A)[sp].d(G)[sp].d(T)[sp].d(T)[sp].d(T)[sp].d(A)[sp].d([m5C])[sp].d([m5C])[sp].d([m5C])[sp].[moe]([m5C])p.[moe](A)p.[moe](A)[sp].[moe](G)}$$$$ (last 3' nucleoside missing)”, the 3 h FOB score came to 3.25 score 0-7.

“RNA1{[moe](T)[sp].[moe]([m5C])p.[moe](A)p.[moe](G)p.[moe]([m5C])[sp].d([m5C])[sp].d([m5C])[sp].d([m5C])[sp].d(A)[sp].d(A)[sp].d(A)[sp].d(A)[sp].d(G)[sp].d(A)[sp].d(A)[sp].[moe](T)p.[moe](G)p.[moe]([m5C])[sp].[moe]([m5C])}$$$$ (last 3' nucleoside missing)” registered a 3 h FOB score of 0 score 0-7.

For the substance “RNA1{[moe](T)[sp].[moe](T)p.[moe](A)p.[moe]([m5C])p.[moe]([m5C])[sp].d(T)[sp].d(T)[sp].d(T)[sp].d(A)[sp].d(A)[sp].d([m5C])[sp].d(A)[sp].d(T)[sp].d(T)[sp].d([m5C])[sp].[moe]([m5C])p.[moe](T)p.[moe]([m5C])[sp].[moe](A)}$$$$ (last 3' nucleoside missing)”, the 3 h FOB score stood at 0 score 0-7.

Turning to “RNA1{[moe](G)[sp].[moe](A)p.[moe](G)p.[moe](T)p.[moe](A)[sp].d(A)[sp].d(A)[sp].d(T)[sp].d([m5C])[sp].d(A)[sp].d(T)[sp].d(A)[sp].d(A)[sp].d(A)[sp].d(A)[sp].[moe]([m5C])p.[moe](G)p.[moe](G)[sp].[moe](G)}$$$$ (last 3' nucleoside missing)”, the 3 h FOB score was 2 score 0-7.

“RNA1{[moe](T)[sp].[moe]([m5C])p.[moe](T)p.[moe](T)p.[moe]([m5C])[sp].d(T)[sp].d(T)[sp].d([m5C])[sp].d([m5C])[sp].d(A)[sp].d([m5C])[sp].d([m5C])[sp].d(T)[sp].d([m5C])[sp].d(A)[sp].[moe](G)p.[moe]([m5C])p.[moe]([m5C])[sp].[moe](A)}$$$$ (last 3' nucleoside missing)” gave a 3 h FOB score of 0.5 score 0-7.

For the substance “RNA1{[moe](G)[sp].[moe](T)p.[moe]([m5C])p.[moe](A)p.[moe]([m5C])[sp].d(A)[sp].d(T)[sp].d(G)[sp].d(A)[sp].d(T)[sp].d(A)[sp].d(T)[sp].d(T)[sp].d(T)[sp].d([m5C])[sp].[moe](A)p.[moe](G)p.[moe](A)[sp].[moe](T)}$$$$ (last 3' nucleoside missing)”, the 3 h FOB score is 1 score 0-7.

For the substance “RNA1{[moe](G)[sp].[moe]([m5C])p.[moe](T)p.[moe](G)p.[moe](T)[sp].d(T)[sp].d(G)[sp].d(T)[sp].d(A)[sp].d(G)[sp].d(G)[sp].d(A)[sp].d(A)[sp].d([m5C])[sp].d(T)[sp].[moe]([m5C])p.[moe](G)p.[moe](A)[sp].[moe](A)}$$$$ (last 3' nucleoside missing)”, the 3 h FOB score turned out to be 4 score 0-7.

The substance “RNA1{[moe](G)[sp].[moe]([m5C])p.[moe](T)p.[moe](A)p.[moe]([m5C])[sp].d(A)[sp].d(A)[sp].d(T)[sp].d(T)[sp].d(A)[sp].d(T)[sp].d([m5C])[sp].d([m5C])[sp].d(A)[sp].d([m5C])[sp].[moe](A)p.[moe](T)p.[moe](G)[sp].[moe](G)}$$$$ (last 3' nucleoside missing)” gave a 3 h FOB score of 0 score 0-7.

On to “RNA1{[moe](T)[sp].[moe](G)p.[moe](T)p.[moe](T)p.[moe]([m5C])[sp].d([m5C])[sp].d(A)[sp].d(A)[sp].d(A)[sp].d(G)[sp].d(A)[sp].d(T)[sp].d(T)[sp].d([m5C])[sp].d([m5C])[sp].[moe](A)p.[moe]([m5C])p.[moe](T)[sp].[moe](T)}$$$$ (last 3' nucleoside missing)”, for which the 3 h FOB score was 1 score 0-7.

In turn, “RNA1{[moe](G)[sp].[moe]([m5C])p.[moe]([m5C])p.[moe](A)p.[moe](T)[sp].d(A)[sp].d(T)[sp].d(T)[sp].d(G)[sp].d(T)[sp].d([m5C])[sp].d(A)[sp].d(T)[sp].d(T)[sp].d(T)[sp].[moe](T)p.[moe](A)p.[moe]([m5C])[sp].[moe](A)}$$$$ (last 3' nucleoside missing)” displayed a 3 h FOB score of 1.33 score 0-7.

As to “RNA1{[moe](G)[sp].[moe](T)p.[moe](A)p.[moe]([m5C])p.[moe](A)[sp].d(T)[sp].d(A)[sp].d(T)[sp].d(T)[sp].d([m5C])[sp].d(A)[sp].d(T)[sp].d(T)[sp].d([m5C])[sp].d(A)[sp].[moe](A)p.[moe](T)p.[moe]([m5C])[sp].[moe](T)}$$$$ (last 3' nucleoside missing)”, the 3 h FOB score came to 0 score 0-7.

In turn, “RNA1{[moe](T)[sp].[moe](G)p.[moe](G)p.[moe](T)p.[moe]([m5C])[sp].d(A)[sp].d(T)[sp].d(T)[sp].d(A)[sp].d([m5C])[sp].d(T)[sp].d(A)[sp].d([m5C])[sp].d(T)[sp].d(T)[sp].[moe](A)p.[moe]([m5C])p.[moe](A)[sp].[moe]([m5C])}$$$$ (last 3' nucleoside missing)” returned a 3 h FOB score of 0 score 0-7.

“RNA1{[moe](T)[sp].[moe](A)p.[moe](G)p.[moe](T)p.[moe](A)[sp].d([m5C])[sp].d(A)[sp].d(T)[sp].d(T)[sp].d([m5C])[sp].d([m5C])[sp].d(A)[sp].d([m5C])[sp].d(T)[sp].d(T)[sp].[moe](T)p.[moe](G)p.[moe](T)[sp].[moe](T)}$$$$ (last 3' nucleoside missing)” displayed a 3 h FOB score of 0 score 0-7.

As to “RNA1{[moe]([m5C])[sp].[moe](T)p.[moe](T)p.[moe](T)p.[moe]([m5C])[sp].d(T)[sp].d(A)[sp].d(T)[sp].d(T)[sp].d(T)[sp].d(A)[sp].d([m5C])[sp].d(T)[sp].d([m5C])[sp].d(A)[sp].[moe]([m5C])p.[moe](A)p.[moe](G)[sp].[moe]([m5C])}$$$$ (last 3' nucleoside missing)”, the 3 h FOB score was 0 score 0-7.

Turning to “RNA1{[moe](G)[sp].[moe](T)p.[moe](A)p.[moe]([m5C])p.[moe](T)[sp].d([m5C])[sp].d(A)[sp].d(T)[sp].d(T)[sp].d(T)[sp].d(T)[sp].d(T)[sp].d(G)[sp].d(T)[sp].d(T)[sp].[moe]([m5C])p.[moe](T)p.[moe](T)[sp].[moe](A)}$$$$ (last 3' nucleoside missing)”, the 3 h FOB score is 0.67 score 0-7.

Substance “RNA1{[moe](G)[sp].[moe]([m5C])p.[moe](A)p.[moe](A)p.[moe](A)[sp].d([m5C])[sp].d([m5C])[sp].d(A)[sp].d([m5C])[sp].d(T)[sp].d(T)[sp].d([m5C])[sp].d(T)[sp].d(G)[sp].d(T)[sp].[moe](A)p.[moe](G)p.[moe]([m5C])[sp].[moe](T)}$$$$ (last 3' nucleoside missing)” gave a 3 h FOB score of 0 score 0-7.

The record behind these values is the OligoGym collection.
